Values quoted from earlier work as cited in paper PMC10401071 (Cancer Discovery, 2023).

Test system: WDLPS and DDLPS
Settings: patients with WDLPS and DDLPS; cited from earlier work

COc1cccc2c1C(=O)c1c(O)c3c(c(O)c1C2=O)C[C@@](O)(C(=O)CO)C[C@@H]3O[C@H]1C[C@H](N)[C@H](O)[C@H](C)O1 [doxorubicin]
overall survival: ~9 months
